Data as given in patent US8658637B2, “Glucocorticoid mimetics, methods of making them, pharmaceutical compositions and uses thereof” (Boehringer Ingelheim International GmbH, priority 2006, dated 2014).

Experiments:
[1] = tested on: IL-6 production in human foreskin fibroblast cells; assay: Inhibition of IL-6 Production in Fibroblasts (Cell Assay for Transrepression); type: cell-based; conditions: IL-1 stimulated human foreskin fibroblasts; for EC50: read-out: agonistic activity (EC50) by inhibiting IL-6 production in Fibroblasts; for Emax: read-out: efficacy by inhibiting IL-6 production in Fibroblasts
Procedure: 2. Inhibition of IL-6 Production in Fibroblasts (Cell Assay for Transrepression)
Human foreskin fibroblast cells produce IL-6 in response to stimulation by proinflammatory cytokine IL-1.
Human foreskin fibroblast cells (ATCC Cat. No. CRL-2429) are plated on 96 well plates at 5,000 cells per well the day before use, in Iscove's Modified Dulbecco's Media (GibcoBRL Life Technologies Cat. No. 12440-053) supplemented with 10% charcoal filtered FBS (Clonetech Cat. No. SH30068) and Gentamycin (GibcoBRL Life Technologies Cat. No. 15710-064). On the next day, media in the wells is replaced with fresh media. Cells are treated with IL-1 (rhIL-1α, R&D Systems Cat. No. 200-LA) to a final concentration of 1 ng/mL, and with test compounds to final concentrations of 10^−5 M to 10^−8 M, in a total volume of 200 μL per well. Samples are done in duplicates. […] Positive control wells receive IL-1 only and represent maximum (or 100%) amount of IL-6 production. Plates are incubated at 37° C. overnight (15 to 18 hours), and supernatants are harvested at the end of incubation. IL-6 levels in the supernatants are determined by the ELISA kits for IL-6 (MedSystems Diagnostics GmbH, Vienna, Austria, Cat. No. BMS213TEN) according to manufacture's instructions. The extent of inhibition of IL-6 by test compounds is expressed in percentage relative to positive controls. IC50 values of test compounds are derived by non-linear curve fitting.

SMILES	melting point [°C]	EC50 [1] [µM]	Emax [1] [%]
OC(c1cnc2c(cnn2-c2ccccc2)c1)(c1c[nH]c2ncccc12)C(F)(F)F (stereo not drawn)	137 to 141	–	–
OCC(O)Cn1cc(C(O)(c2ccn3c(-c4ccc(F)cc4)ncc3c2)C(F)(F)F)c2ccccc21 (stereo not drawn) [3-(3-{2,2,2-Trifluoro-1-[3-(4-fluorophenyl)imidazo[1,5-a]pyridin-7-yl]-1-hydroxyethyl}indol-1-yl)propane-1,2-diol]	–	≤ 1	> 50
OCC(O)Cn1cc(C(O)(c2ccc3c(cnn3-c3ccc(F)cc3)c2)C(F)(F)F)c2ccc(Br)cc21 (stereo not drawn) [3-(6-Bromo-3-{2,2,2-trifluoro-1-[1-(4-fluorophenyl)-1H-indazol-5-yl]-1-hydroxyethyl}indol-1-yl)propane-1,2-diol]	–	≤ 1	> 50
COc1nccc2c(C(O)(c3ccc4c(cnn4-c4ccc(F)cc4)c3)C(F)(F)F)cn(CC(O)CO)c12 (stereo not drawn) [3-(7-Methoxy-3-{2,2,2-trifluoro-1-[1-(4-fluorophenyl)-1H-indazol-5-yl]-1-hydroxyethyl}pyrrolo[2,3-c]pyridin-1-yl)propane-1,2-diol]	–	≤ 1	> 50
Cc1cc(C(O)(c2ccc3c(cnn3-c3ccc(F)cc3)c2)C(F)(F)F)c[nH]c1=O (stereo not drawn) [3-Methyl-5-{2,2,2-trifluoro-1-[1-(4-fluorophenyl)-1H-indazol-5-yl]-1-hydroxyethyl}-1H-pyridin-2-one]	–	≤ 1	> 50
OCC(O)CCn1cc(C(O)(c2ccc3c(cnn3-c3ccc(F)cc3)c2)C(F)(F)F)c2ccccc21 (stereo not drawn) [4-(3-{2,2,2-Trifluoro-1-[1-(4-fluorophenyl)-1H-indazol-5-yl]-1-hydroxyethyl}indol-1-yl)-butane-1,2-diol]	–	≤ 1	> 50
C=CCn1cc(C(O)(c2ccc3c(cnn3-c3ccc(F)cc3)c2)C(F)(F)F)c2ncn(C)c(=O)c21 (stereo not drawn) [5-Allyl-3-methyl-7-{2,2,2-trifluoro-1-[1-(4-fluorophenyl)-1H-indazol-5-yl]-1-hydroxyethyl}-3,5-dihydropyrrolo[3,2-d]pyrimidin-4-one]	–	≤ 1	> 50
CC(C)NC(=O)n1ncc2cc(C(O)(c3cn(C)c4ccccc34)C(F)(F)F)ccc21 (stereo not drawn) [5-[2,2,2-Trifluoro-1-hydroxy-1-(1-methyl-1H-indol-3-yl)ethyl]indazole-1-carboxylic acid isopropylamide]	–	≤ 1	> 50
Cc1cc(C(O)(c2ccc3c(cnn3-c3ccc(F)cc3)c2)C(F)(F)F)cn(CC(N)=O)c1=O (stereo not drawn) [(3-Methyl-2-oxo-5-{2,2,2-trifluoro-1-[1-(4-fluorophenyl)-1H-indazol-5-yl]-1-hydroxyethyl}-2H-pyridin-1-yl)acetamide]	–	≤ 1	> 50
CCOC(=O)Cn1cc(C(O)(c2ccc3c(cnn3-c3ccc(F)cc3)c2)C(F)(F)F)c2ccccc21 (stereo not drawn) [(3-{2,2,2-Trifluoro-1-[1-(4-fluorophenyl)-1H-indazol-5-yl]-1-hydroxyethyl}indol-1-yl)acetic acid ethyl ester]	–	≤ 1	> 50
O=C(O)Cn1cc(C(O)(c2ccc3c(cnn3-c3ccc(F)cc3)c2)C(F)(F)F)c2ccccc21 (stereo not drawn) [(3-{2,2,2-Trifluoro-1-[1-(4-fluorophenyl)-1H-indazol-5-yl]-1-hydroxyethyl}indol-1-yl)acetic acid]	–	≤ 1	> 50
N#CCn1cc(C(O)(c2ccc3c(cnn3-c3ccc(F)cc3)c2)C(F)(F)F)c2cccnc21 (stereo not drawn) [(3-{2,2,2-Trifluoro-1-[1-(4-fluorophenyl)-1H-indazol-5-yl]-1-hydroxyethyl}pyrrolo[2,3-b]pyridin-1-yl)acetonitrile]	–	≤ 1	> 50
C[C@@H](O)Cn1cc(C(O)(c2ccc3c(cnn3-c3ccc(F)cc3)c2)C(F)(F)F)c2ccccc21 (stereo partly drawn) [(R)-1-(3-{2,2,2-Trifluoro-1-[1-(4-fluorophenyl)-1H-indazol-5-yl]-1-hydroxyethyl}indol-1-yl)propan-2-ol]	–	≤ 1	> 50
C[C@H](O)Cn1cc(C(O)(c2ccc3c(cnn3-c3ccc(F)cc3)c2)C(F)(F)F)c2ccccc21 (stereo partly drawn) [(S)-1-(3-{2,2,2-Trifluoro-1-[1-(4-fluorophenyl)-1H-indazol-5-yl]-1-hydroxyethyl}indol-1-yl)propan-2-ol]	–	≤ 1	> 50
C=CCn1cc(C(O)(c2ccc3c(cnn3-c3ccc(F)cc3)c2)C(F)(F)F)c2ccn(C)c(=O)c21 (stereo not drawn) [Example 75, 1-Allyl-6-methyl-3-{2,2,2-trifluoro-1-[1-(4-fluorophenyl)-1H-indazol-5-yl]-1-hydroxyethyl}-1,6-dihydropyrrolo[2,3-c]pyridin-7-one]	91 to 93	–	–
CNC(=O)CCn1cc(C(O)(c2ccc3c(cnn3-c3ccc(F)cc3)c2)C(F)(F)F)c2ccccc21 (stereo not drawn) [N-Methyl-3-(3-{2,2,2-trifluoro-1-[1-(4-fluorophenyl)-1H-indazol-5-yl]-1-hydroxyethyl}indol-1-yl)propionamide]	–	≤ 1	> 50
